According to article PMC5509001, “Structure Modeling of Human Tyrosyl-DNA Phosphodiesterase 1 and Screening for Its Inhibitors” (Acta Naturae, 2017):

Target: T1, recombinant human Tdp1 (tyrosyl-DNA phosphodiesterase 1) (Homo sapiens, UniProt Q9NUW8)
T1 construct: recombinant from plasmid pET 16B Tdp1 in Escherichia coli
Assay: real-time fluorescence biosensor (FAM-oligonucleotide-BHQ1) cleavage
Type: biochemical
Description: real-time fluorescence biosensor (FAM-oligonucleotide-BHQ1) cleavage on recombinant human Tdp1 (tyrosyl-DNA phosphodiesterase 1)

T1 sequence (Q9NUW8 whole entry): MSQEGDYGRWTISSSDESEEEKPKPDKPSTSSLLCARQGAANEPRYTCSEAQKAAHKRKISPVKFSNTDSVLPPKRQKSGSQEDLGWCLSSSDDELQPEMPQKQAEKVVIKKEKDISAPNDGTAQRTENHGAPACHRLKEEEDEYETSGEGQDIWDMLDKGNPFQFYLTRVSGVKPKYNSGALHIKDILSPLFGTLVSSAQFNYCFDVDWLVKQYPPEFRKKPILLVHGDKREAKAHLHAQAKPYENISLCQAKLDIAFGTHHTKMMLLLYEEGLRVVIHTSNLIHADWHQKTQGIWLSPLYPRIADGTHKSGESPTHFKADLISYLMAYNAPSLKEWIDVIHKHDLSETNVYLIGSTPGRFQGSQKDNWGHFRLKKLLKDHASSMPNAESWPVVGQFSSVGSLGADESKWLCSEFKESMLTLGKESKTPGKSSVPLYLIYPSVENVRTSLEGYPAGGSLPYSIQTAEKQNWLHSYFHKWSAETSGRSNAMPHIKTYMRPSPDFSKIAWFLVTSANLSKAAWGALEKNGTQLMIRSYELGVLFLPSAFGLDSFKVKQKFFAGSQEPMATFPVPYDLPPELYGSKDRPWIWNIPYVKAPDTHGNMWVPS

| IC50 | Structure (SMILES) |
| --- | --- |
| 83 ± 24 µM | O=S(=O)(O)CCSc1nc2ccccc2s1 [STK370528] |
| 686 ± 14 µM | O=S(=O)(O)CCCSc1nc2ccccc2[nH]1 [STK376552] |
